pIC50, pKi: −log10 of the molar value.
Tests used:
DHODH = system: DHODH; parameters: method as in PMID 35184687; settings: 100 µM; same experimental setup; cited from earlier work
SW620 cells [1] = assay: Complex I- and complex II-dependent respiration (permeabilized cells); assay type: cell-based, human; settings: 100 µM, 24 h
Method: Following treatment, cells were detached using trypsin–EDTA, washed with PBS, and resuspended in MiR05 media (composed of 110 mM sucrose, 60 mM potassium-lactobionate, 0.5 mM EGTA, 3 mM MgCl2·6H2O, 20 mM taurine, 10 mM KH2PO4, 20 mM HEPES adjusted to pH 7.1 with KOH at 37 °C, and 1 g/L BSA) at a concentration of 5 × 10^5 cells/mL. The cells were then transferred into 2 mL Oxygraph chambers for real-time measurement of OCR. Initial permeabilization was achieved using 7 μg of digitonin, followed by the sequential addition of substrates and inhibitors: 5 mM ADP, 2 mM malate, 10 μM cytochrome c, 5 mM pyruvate, 10 mM glutamate, 10 mM succinate, 0.5 μM rotenone, and 2.5 μM antimycin A. Mitochondrial membrane integrity was confirmed through the addition of cytochrome c (10 μM), with observed changes in OCR remaining below 10%. Complex I-mediated respiration was evaluated following the addition of complex I substrates (malate/pyruvate/glutamate), while complex II-mediated respiration was assessed in the presence of the complex II substrate (succinate) and the complex I inhibitor (rotenone). Residual oxygen consumption after the addition of antimycin A was subtracted from all the results to yield mitochondria-specific rates. […] Oxygen consumption rates were expressed as picomoles (pmol) per second per million cells (Mill) and normalized to the mitochondrial copy number in each sample.

SW620 cells [2] = assay: Mitochondrial respiration (OCR) in intact cells; assay type: cell-based, human; settings: 24 h
Method: Oxygen consumption rate (OCR) was measured using a high-resolution respirometer (Oxygraph-2k, Oroboros Instruments, Innsbruck, Austria). SW620 cells (2.2 × 10^6) were cultured in 100-mm Petri dishes and treated with DMSO or NK-A 17E-233I (25 µM) for 24 h. Cells were harvested at 80% confluency using 0.25% trypsin/EDTA and resuspended in complete DMEM at a concentration of 5 × 10^5 cells/mL. The cells were subsequently analyzed in two 2 mL Oxygraph chambers. Real-time measurements of OCR were conducted at 37 °C under basal conditions and following the sequential addition of inhibitors targeting various mitochondrial respiratory complexes: oligomycin (2.5 μM) to inhibit complex V (to assess ATP-linked respiration and leak rate), carbonyl cyanide-p-trifluoromethoxyphenylhydrazone (FCCP) with stepwise titration in 0.5 μM increments (to evaluate maximal electron transport system respiratory capacity and reserve capacity), and rotenone (0.5 μM) and antimycin A (2.5 μM) to inhibit complex I and complex III, respectively (to measure non-mitochondrial oxygen consumption). The values of OCR were normalized to mitochondrial DNA copy number, which was quantified by qPCR using the primers referenced above. Data analysis was performed using DatLab7 (Oroboros, Austria) software.

SW620 cells [3] = settings: 96 h
colorectal cancer cells [4] = assay: Western blot; assay type: cell-based, human; settings: NK-A 17E-233I 25 µM; Brequinar
Method: Cancer cells (2.2 × 10^6) were cultured in 100-mm Petri dishes and treated with DMSO or NK-A 17E-233I (25 µM) for 48 h. Cells were harvested by scrapping into 2 × Laemmli buffer (4% SDS, 20% glycerol, 125 mM Tris–HCl, pH 6.8) and heated at 100 °C for 5 min. A 4 × Laemmli sample buffer containing β-mercaptoethanol was added to the cell lysates. The proteins were separated using sodium dodecyl sulfate polyacrylamide gel electrophoresis (SDS-PAGE) and subsequently transferred to polyvinylidene fluoride (PVDF) membranes (#88518; Thermo Fisher Scientific) following the manufacturer’s protocols. The membranes were blocked at room temperature for 1 h with 5% dried skimmed milk in Tris-buffered saline with Tween-20 (TBS-T) (20 mM Tris–HCl, pH 7.5, 150 mM NaCl, 0.1% Tween-20), and the blots were incubated with the corresponding antibodies at a dilution of 1:1000–1:3000 in a blocking buffer at 4 °C overnight.
Primary antibodies utilized in this study included: anti-human DHODH (#SC-166348; Santa Cruz), anti–CHK1-pS345 (#2348; Cell Signaling), anti-POLD2 (#29765–1-AP; Proteintech), anti-POLD1 (#15646–1-AP; Proteintech), anti-p53 (#SC-126; Santa Cruz), anti-KRAS, clone 4F3 (#SAB1404011; Sigma-Aldrich), anti-GAPDH (#ab9489; Abcam), anti–α-tubulin (#T9026; Sigma-Aldrich), anti-BAX (#SC-23959; Santa Cruz), anti-cytochrome c (#66264–1-IG; Proteintech), anti-DR5 (#3696; Cell Signaling, dilution 1:500), anti–caspase-8 (#SC-56070; Santa Cruz), and anti–caspase-3 (#9662; Cell Signaling, dilution 1:500). The membranes were incubated at room temperature for 1 h with secondary antibodies (diluted 1:3000–5000), either anti-rabbit (#A0545; Sigma-Aldrich) or anti-mouse IgG-horseradish peroxidase-conjugated (#A9044; Sigma-Aldrich), in TBS-T. The images were analyzed and quantified using ImageStudio software (LI-COR) or ImageQuant 10.2 TL analysis software (Cytiva Life Sciences).

Δ29 DHODH (N-truncated) = target: T1, Δ29 DHODH (N-truncated) (Homo sapiens, UniProt Q02127); assay: In vitro DHODH enzyme activity assay; assay type: biochemical; settings: 1 mM DHO; ± SD
T1 construct: N-terminal truncated form of human DHODH (Δ29), where the N-terminal transmembrane domain was removed; made in house
Method: The assays to determine the inhibition constants of inhibitors of the recombinant DHODH enzymes are described in [28, 29].
The IC50 values were determined by fitting the equation V = V max/(1 + (I/IC50)^h) to the assay data using SigmaPlot14 (Systat Software Inc.). In this equation, V represents the measured enzyme activity, while V max indicates the maximum enzyme activity reached. I denotes the inhibitor concentration, and h describes the slope of the fitted curve.

SW620 cells [5] = assay: DHODH-dependent respiration (permeabilized cells); assay type: cell-based, human; settings: 24 h; NK-A 17E-233I 25 µM, Brequinar 100 µM; excess exogenous DHO
Method: Cells were resuspended in MiR05 medium and transferred into the chambers of the Oxygraph-2k instruments. The OCR in digitonin-permeabilized cells was monitored in the presence of the complex I inhibitor (0.5 μM rotenone), 1 mM DHO, 3 mM ADP, 10 μM cytochrome c, and 30 μM Leflunomide. DHODH-mediated respiration was calculated by subtracting the residual respiration rate after the addition of 30 μM Leflunomide from the respiration rate measured in the presence of 0.5 μM rotenone, 1 mM DHO, 3 mM ADP, and 10 μM cytochrome c.

colorectal cancer cells [6] = assay: Flow cytometry-based cell cycle analysis; parameters: species or system human; settings: washout 12 h; NK-A 17E-233I 25 µM, HU 1 mM
Method: Cancer cells (3 × 10^4) were cultured in 48-well plates and treated with DMSO or NK-A 17E-233I (25 µM) for 24 h. Following treatment, all wells were washed with PBS (#P4417; Sigma-Aldrich), and the cells were collected in Eppendorf tubes. The cells were harvested using 0.25% trypsin (#25200056; ThermoScientific) and 0.02% EDTA (1:1) (#17892; ThermoFisher Scientific) for 2 min, followed by the addition of DMEM. The tubes were then centrifuged at 500 × g for 5 min. The supernatant was discarded, and the pellets were fixed in 70% cold ethanol and stored at -20 °C for at least 1 h. The pellets were resuspended in 1 mL PBS and centrifuged at 500 × g at 4 °C for 5 min. The supernatant was discarded once again, and the pellets were subsequently reconstituted in a solution containing propidium iodide (PI; #25,535–16-4, Merck) and RNase (#N8080119, Applied Biosystems), followed by storage at 4 °C overnight. Cell cycle analysis was conducted using a CytoFLEX flow cytometer (Beckman Coulter; 405 nm laser). Cells were gated based on size and granularity on a forward scatter (FSC)/side scatter (SSC) plot, with cell debris excluded from the analysis. Mean fluorescence intensity from 1 × 10^4 cells was recorded. Data analysis was conducted using FlowJo software v10.8.1 (BD Life Sciences).

human DHODH = settings: cited from earlier work

T1 sequence (Q02127 29-395, stated change not applied): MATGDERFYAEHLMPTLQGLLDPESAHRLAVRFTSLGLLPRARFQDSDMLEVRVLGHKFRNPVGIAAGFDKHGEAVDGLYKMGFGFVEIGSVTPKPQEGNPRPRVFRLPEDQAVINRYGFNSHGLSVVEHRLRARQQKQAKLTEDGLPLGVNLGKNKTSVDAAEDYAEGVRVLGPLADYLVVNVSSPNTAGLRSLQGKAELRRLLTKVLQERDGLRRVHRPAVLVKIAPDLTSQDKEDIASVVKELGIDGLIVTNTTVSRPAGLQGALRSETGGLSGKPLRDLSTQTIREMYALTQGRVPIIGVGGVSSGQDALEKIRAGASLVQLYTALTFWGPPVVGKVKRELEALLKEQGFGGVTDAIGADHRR

O=C1CC(C(=O)O)NC(=O)N1 (stereo not drawn) [DHO, dihydroorotate]
ΔTm (DHODH): 3.5 °C

Cc1c(-c2ccc(-c3ccccc3F)cc2)nc2ccc(F)cc2c1C(=O)O [Brequinar, reference compound]
complex II-mediated respiration (SW620 cells [1]): stimulated
parameters of mitochondrial respiration in intact cells (SW620 cells [2]; 100 µM): decreased most of these respiration parameters
basal and ATP-linked respiration in intact cells (SW620 cells [2]; NK-A 17E-233I 25 µM, Brequinar 100 µM): significantly decreased
pIC50 (SW620 cells [3]): 4.00
levels of p53-mutant protein (colorectal cancer cells [4]): did not have an observed effect
average of the fitted slopes (Δ29 DHODH (N-truncated)): 1.1 ± 0.2
DHODH-mediated oxygen consumption rate (SW620 cells [5]): reduced

NC(=O)NO [HU, hydroxyurea, reference compound]
cell cycle after washout (colorectal cancer cells [6]): resumed proliferation

O=C1C(O)=C([C@H]2CC[C@H](c3ccc(Cl)cc3)CC2)C(=O)c2ccccc21 [Atovaquone]
mode of inhibition with respect to DHO (human DHODH): uncompetitive inhibitors

O=C(O)c1cc(=O)[nH]c(=O)[nH]1 [orotate]
pKi (human DHODH; competitive inhibitor concerning DHO): 4.96

C/C(O)=C(\C#N)C(=O)Nc1ccc(C(F)(F)F)cc1 [Teriflunomide]
mode of inhibition with respect to DHO (human DHODH): uncompetitive inhibitors

Reference: PMC12534982 (Journal of Experimental & Clinical Cancer Research : CR, 2025)
